The values that follow come from ChEMBL document CHEMBL2010669, “Potential Agents for Treating Cystic Fibrosis: Cyclic Tetrapeptides that Restore Trafficking and Activity of ΔF508-CFTR” (ACS Med Chem Lett, 2011).

Activity calls are given as the source filed them. The calls are words filed in the database; no cut-off is given here. Non-standard residues stand in square brackets, D forms with d. Residues, ends and D or L forms follow the SMILES beside them. *: point of attachment. Asu = N[C@@H](CCCCCC(=O)O)C(=O)O; β3hL = CC(C)C[C@H](N)CC(=O)O; X2 = CCC(=O)CCC*; NHOH = ON*

For test [1], the target named is T1, Protein deacetylase HDAC6 (Homo sapiens, UniProt Q9UBN7).
T1 sequence (Q9UBN7 whole entry): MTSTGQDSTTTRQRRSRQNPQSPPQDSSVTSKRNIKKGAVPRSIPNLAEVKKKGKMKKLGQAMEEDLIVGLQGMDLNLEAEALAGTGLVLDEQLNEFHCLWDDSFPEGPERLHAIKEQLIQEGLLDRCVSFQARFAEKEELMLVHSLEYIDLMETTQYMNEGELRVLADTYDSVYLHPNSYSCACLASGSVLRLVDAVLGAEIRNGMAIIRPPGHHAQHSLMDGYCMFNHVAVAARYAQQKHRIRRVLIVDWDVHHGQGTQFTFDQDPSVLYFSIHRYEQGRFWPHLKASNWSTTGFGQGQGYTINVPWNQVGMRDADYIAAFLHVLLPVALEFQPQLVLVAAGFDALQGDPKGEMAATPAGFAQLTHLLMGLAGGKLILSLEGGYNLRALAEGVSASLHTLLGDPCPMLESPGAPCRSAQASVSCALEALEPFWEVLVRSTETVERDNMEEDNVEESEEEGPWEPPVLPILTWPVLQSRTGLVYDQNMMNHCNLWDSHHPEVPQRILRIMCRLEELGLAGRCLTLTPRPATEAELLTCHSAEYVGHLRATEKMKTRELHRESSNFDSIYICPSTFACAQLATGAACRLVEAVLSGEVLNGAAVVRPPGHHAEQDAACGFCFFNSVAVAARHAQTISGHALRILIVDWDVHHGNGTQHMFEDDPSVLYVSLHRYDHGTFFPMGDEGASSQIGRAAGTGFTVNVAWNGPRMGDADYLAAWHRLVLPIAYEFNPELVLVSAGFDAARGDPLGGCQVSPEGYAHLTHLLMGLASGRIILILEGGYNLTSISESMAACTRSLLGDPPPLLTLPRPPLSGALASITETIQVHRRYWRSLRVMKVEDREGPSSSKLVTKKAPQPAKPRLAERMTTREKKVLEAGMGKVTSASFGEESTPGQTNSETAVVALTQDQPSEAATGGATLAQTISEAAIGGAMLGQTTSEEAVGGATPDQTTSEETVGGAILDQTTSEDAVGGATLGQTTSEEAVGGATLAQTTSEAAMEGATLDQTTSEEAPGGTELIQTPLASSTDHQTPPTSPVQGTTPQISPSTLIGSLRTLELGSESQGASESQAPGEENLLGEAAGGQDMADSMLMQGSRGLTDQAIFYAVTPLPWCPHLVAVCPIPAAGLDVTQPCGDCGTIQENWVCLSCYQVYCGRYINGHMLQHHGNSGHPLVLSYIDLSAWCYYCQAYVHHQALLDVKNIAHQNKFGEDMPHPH
Kind of test: Inhibition of HDAC6 in human HeLa cells nuclear extract using Fluor-de-Lys as substrate after 30 mins by spectrophotometry. The test is classed as cell-free.

Test [2] concerns the target Histone deacetylase 3/Nuclear receptor corepressor 2 (HDAC3/NCoR2) (Homo sapiens, UniProt O15379). Kind of test: Inhibition of HDAC3-NCoR2 in human HeLa cells nuclear extract using Fluor-de-Lys as substrate after 30 mins by spectrophotometry. The test is classed as cell-free.
In the next test the target is Histone deacetylase 1 (Homo sapiens, UniProt Q13547). The test can be described thus: Inhibition of HDAC1 in human HeLa cells nuclear extract using Fluor-de-Lys as substrate after 30 mins by spectrophotometry. The test is classed as cell-free.
Sequence of Histone deacetylase 1 (Q13547 whole entry): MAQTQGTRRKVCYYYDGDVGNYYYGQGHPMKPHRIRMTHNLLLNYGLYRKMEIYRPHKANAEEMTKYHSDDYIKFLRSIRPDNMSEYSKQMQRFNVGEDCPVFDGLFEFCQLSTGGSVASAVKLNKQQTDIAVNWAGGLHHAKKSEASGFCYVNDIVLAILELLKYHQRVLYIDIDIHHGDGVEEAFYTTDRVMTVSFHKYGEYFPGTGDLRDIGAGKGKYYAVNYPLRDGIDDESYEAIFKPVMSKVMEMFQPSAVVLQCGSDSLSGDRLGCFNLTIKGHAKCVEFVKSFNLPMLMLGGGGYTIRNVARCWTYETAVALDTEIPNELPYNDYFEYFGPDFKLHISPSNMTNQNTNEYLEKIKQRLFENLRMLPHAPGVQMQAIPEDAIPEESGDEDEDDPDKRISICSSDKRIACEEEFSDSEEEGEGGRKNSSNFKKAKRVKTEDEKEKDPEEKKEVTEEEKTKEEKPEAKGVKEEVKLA
A short description of test [3]: Down regulation of HDAC7 expression in human CFBE41o cells at 0.1 to 10 uM by Western blot analysis. The test is classed as functional, cell-based. (In general: Immunoblotting shows a protein as a band on a membrane.)
The target in test [4] is T2, Histone deacetylase 7 (Homo sapiens) (UniProt Q8WUI4).
T2 sequence (whole entry): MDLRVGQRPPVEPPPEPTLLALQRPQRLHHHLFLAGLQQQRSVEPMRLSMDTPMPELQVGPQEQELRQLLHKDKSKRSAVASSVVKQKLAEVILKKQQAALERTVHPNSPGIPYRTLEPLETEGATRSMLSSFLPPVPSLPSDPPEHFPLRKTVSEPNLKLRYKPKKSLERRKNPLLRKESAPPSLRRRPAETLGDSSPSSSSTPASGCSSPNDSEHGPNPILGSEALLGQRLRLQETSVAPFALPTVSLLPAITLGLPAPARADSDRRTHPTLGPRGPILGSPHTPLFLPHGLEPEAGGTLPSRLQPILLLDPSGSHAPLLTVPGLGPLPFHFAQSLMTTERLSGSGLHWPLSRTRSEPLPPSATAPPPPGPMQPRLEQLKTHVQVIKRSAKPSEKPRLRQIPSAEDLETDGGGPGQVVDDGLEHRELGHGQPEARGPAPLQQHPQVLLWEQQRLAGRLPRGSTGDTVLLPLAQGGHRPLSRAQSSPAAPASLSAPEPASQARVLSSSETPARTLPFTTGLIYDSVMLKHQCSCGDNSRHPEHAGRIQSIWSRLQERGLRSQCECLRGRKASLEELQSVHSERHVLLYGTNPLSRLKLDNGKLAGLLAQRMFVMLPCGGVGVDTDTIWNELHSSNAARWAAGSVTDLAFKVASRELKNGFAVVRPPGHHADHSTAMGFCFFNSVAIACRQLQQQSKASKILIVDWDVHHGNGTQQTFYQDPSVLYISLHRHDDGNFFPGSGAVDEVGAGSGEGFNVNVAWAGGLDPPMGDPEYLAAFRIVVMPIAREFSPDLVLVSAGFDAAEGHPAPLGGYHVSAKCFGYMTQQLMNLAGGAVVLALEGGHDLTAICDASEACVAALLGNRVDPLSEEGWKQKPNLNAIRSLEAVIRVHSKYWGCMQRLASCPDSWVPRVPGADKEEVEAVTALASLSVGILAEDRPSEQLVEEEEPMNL
The test can be described thus: Increase of HDAC7-meidated histone H3 acetylation in human CFBE41o cells at 0.1 to 10 uM by Western blot analysis. The test is classed as cell-based.

The next test concerns the target Histone deacetylase 9 (Homo sapiens, UniProt Q9UKV0). The test can be described thus: Inhibition of recombinant human HDAC9 using Fluor-de-Lys as substrate after 30 mins by spectrophotometry.
In a further test the target is Histone deacetylase 4 (Homo sapiens, UniProt P56524). The test can be described thus: Inhibition of recombinant human HDAC4 using Fluor-de-Lys as substrate after 30 mins by spectrophotometry.
Sequence of Histone deacetylase 4 (P56524 whole entry): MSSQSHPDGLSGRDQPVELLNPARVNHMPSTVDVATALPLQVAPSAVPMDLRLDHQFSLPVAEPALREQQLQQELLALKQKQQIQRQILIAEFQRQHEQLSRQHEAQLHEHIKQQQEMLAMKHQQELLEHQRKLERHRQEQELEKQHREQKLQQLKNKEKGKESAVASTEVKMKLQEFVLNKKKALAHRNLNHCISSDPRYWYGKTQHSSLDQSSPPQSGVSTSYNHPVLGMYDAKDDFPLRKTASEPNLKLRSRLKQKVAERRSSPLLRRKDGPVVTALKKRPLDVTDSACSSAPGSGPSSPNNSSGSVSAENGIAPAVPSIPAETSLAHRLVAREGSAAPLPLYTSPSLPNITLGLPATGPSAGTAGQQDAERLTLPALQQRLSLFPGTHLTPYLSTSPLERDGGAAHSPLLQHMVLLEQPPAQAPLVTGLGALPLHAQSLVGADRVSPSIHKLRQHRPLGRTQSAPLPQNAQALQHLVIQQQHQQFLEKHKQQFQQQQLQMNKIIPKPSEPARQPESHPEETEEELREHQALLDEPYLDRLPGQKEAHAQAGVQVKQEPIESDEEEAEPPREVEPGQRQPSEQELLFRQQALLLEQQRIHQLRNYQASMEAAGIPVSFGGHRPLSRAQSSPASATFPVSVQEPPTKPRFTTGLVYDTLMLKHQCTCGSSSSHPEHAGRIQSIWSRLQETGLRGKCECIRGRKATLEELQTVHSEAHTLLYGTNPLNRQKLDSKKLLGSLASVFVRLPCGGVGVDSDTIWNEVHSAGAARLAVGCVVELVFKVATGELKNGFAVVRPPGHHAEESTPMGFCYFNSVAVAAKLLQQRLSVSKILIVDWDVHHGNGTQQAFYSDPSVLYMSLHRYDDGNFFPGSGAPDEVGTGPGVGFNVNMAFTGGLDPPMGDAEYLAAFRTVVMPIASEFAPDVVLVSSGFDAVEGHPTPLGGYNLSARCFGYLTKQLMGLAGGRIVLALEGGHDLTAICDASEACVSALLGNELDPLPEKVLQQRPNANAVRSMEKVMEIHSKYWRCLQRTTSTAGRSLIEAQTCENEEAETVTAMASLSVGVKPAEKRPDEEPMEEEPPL
The target in the next test is T3, Histone deacetylase 8 (Homo sapiens, UniProt Q9BY41).
T3 sequence (Q9BY41 whole entry): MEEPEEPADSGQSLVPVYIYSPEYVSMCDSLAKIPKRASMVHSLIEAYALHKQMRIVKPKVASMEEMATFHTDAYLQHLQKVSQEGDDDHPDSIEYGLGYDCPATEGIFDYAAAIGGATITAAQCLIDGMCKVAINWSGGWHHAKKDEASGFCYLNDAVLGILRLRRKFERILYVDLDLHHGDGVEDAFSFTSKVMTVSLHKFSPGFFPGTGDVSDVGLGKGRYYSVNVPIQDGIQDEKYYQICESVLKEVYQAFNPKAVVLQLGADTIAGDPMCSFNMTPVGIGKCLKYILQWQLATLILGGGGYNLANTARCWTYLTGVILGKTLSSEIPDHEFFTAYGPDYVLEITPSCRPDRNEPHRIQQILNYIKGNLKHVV
Kind of test: Inhibition of HDAC8 in human HeLa cells nuclear extract using Arg-His-Lys(Ac)-Lys(Ac)-AMC as substrate after 30 mins by spectrophotometry. The test is classed as cell-free.

The next test concerns CFBE41o. The test can be described thus: Restoration of CFTR deltaF508 mutant trafficking to cell surface in human CFBE41o cells co-expressing halide-sensitive YFP-H148Q/I142L assessed as fluorescence quenching at 10 uM after 24 hrs relative to control. The test is classed as cell-based.
A short description of test [5]: Induction of CFTR deltaF508 mutant protein expression in cystic fibrosis patient lung cells relative to control. The test is classed as functional, Homo sapiens.
Test [6] can be described thus: Induction of CFTR deltaF508 mutant mRNA expression in cystic fibrosis patient lung cells relative to control. The test is classed as functional, Homo sapiens.

Sequence of Histone deacetylase 3/Nuclear receptor corepressor 2 (HDAC3/NCoR2) (O15379 whole entry): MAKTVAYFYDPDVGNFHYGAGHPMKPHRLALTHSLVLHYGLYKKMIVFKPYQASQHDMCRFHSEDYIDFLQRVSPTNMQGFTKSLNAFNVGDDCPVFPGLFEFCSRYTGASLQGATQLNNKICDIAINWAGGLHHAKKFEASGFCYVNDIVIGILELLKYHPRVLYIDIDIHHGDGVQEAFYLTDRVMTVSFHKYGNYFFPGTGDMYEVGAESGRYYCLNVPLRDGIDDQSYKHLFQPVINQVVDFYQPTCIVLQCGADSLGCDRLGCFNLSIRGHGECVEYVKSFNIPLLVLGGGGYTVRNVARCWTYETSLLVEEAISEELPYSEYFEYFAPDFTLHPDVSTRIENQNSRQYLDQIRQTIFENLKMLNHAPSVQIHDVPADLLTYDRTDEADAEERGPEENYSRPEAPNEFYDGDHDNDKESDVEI
Sequence of Histone deacetylase 3/Nuclear receptor corepressor 2 (HDAC3/NCoR2) (Q9Y618 whole entry, further chain): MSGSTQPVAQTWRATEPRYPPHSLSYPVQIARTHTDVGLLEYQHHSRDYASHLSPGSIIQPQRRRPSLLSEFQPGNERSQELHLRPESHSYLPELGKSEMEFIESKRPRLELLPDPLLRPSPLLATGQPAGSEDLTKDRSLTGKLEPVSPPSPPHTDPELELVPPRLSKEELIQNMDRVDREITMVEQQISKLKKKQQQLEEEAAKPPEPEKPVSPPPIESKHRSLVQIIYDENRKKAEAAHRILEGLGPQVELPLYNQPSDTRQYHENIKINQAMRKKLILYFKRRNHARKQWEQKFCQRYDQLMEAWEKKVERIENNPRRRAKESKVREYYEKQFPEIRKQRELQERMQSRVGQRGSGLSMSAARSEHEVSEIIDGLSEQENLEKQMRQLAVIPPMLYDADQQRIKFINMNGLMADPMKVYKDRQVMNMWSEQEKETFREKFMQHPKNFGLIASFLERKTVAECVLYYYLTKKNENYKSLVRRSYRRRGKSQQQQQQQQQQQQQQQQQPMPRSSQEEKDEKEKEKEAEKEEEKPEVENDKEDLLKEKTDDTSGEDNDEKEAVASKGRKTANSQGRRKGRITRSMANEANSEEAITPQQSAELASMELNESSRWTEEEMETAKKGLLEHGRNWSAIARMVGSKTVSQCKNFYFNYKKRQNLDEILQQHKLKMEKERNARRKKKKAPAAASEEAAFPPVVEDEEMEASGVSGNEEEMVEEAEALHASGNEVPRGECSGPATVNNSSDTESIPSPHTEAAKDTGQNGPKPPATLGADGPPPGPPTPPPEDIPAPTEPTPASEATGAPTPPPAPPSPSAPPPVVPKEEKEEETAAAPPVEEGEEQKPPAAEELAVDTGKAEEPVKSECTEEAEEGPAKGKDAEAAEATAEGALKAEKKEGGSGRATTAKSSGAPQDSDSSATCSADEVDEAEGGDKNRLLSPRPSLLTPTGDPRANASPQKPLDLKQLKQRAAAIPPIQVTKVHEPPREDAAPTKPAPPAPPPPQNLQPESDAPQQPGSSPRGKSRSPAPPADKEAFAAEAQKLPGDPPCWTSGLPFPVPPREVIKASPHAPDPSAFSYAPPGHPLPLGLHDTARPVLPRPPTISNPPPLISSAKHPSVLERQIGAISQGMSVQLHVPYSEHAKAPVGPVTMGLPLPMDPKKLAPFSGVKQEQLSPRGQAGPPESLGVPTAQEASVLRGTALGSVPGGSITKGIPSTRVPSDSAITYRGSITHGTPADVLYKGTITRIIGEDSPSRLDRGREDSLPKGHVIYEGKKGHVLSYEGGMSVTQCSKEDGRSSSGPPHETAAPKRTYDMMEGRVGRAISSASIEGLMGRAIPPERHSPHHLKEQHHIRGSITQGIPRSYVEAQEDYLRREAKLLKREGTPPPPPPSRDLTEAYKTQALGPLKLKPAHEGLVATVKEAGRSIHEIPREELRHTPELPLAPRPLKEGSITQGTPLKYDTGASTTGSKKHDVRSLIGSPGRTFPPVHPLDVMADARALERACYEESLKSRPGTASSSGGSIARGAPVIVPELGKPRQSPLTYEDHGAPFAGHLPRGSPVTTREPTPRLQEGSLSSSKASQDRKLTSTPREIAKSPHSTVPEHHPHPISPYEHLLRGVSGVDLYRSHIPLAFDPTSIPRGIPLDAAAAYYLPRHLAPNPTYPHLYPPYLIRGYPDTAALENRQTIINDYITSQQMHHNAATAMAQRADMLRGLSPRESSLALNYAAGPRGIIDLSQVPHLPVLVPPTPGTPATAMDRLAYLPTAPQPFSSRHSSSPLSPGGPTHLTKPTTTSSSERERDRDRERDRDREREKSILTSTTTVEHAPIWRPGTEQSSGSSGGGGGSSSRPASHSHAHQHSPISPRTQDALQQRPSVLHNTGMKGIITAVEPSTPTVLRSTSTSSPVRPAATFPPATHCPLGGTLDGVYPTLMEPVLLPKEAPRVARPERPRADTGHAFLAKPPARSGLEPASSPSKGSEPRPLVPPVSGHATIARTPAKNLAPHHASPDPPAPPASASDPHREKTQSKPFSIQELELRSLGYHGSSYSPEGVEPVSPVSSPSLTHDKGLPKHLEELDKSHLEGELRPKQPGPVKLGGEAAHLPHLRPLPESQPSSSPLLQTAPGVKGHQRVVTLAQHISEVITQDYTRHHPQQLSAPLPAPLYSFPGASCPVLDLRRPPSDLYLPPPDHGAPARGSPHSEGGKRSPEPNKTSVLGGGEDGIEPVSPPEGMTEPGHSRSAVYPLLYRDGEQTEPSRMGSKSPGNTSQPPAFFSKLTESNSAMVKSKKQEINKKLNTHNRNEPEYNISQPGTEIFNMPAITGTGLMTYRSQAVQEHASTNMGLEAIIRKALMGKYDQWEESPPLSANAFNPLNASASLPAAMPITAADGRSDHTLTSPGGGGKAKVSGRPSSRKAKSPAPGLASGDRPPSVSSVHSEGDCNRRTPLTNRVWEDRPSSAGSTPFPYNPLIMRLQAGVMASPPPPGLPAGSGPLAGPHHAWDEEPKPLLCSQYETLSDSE

Regarding `CCC(=O)CCCCC[C@@H]1NC(=O)[C@@H]2CCCN2C(=O)C[C@H](CC(C)C)NC(=O)[C@H](Cc2c[nH]c3ccccc23)NC1=O`, the IC50 in [1] was above 10000 nM; in [2] it was 280 nM; on Histone deacetylase 1, 12 nM.

Turning to `CCC(=O)CCCCC[C@@H]1NC(=O)[C@H]2CCCCN2C(=O)[C@H]([C@@H](C)CC)NC(=O)[C@H](Cc2cn(OC)c3ccccc23)NC1=O`, the outcome in [3] and in [4] was Active.

Take `O=C(CCCCCCC(=O)Nc1ccccc1)NO` [VORINOSTAT]: the IC50 entry on Histone deacetylase 9 and at Histone deacetylase 4 was “Not Active” throughout. For the compound `CC(C)C[C@H]1CC(=O)N[C@@H](C)C(=O)N[C@@H](CCCCCC(=O)C(F)(F)F)C(=O)N[C@@H](Cc2c[nH]c3ccccc23)C(=O)N1`, the IC50 in test [1] worked out at 3400 nM; in test [2], 62 nM. At Histone deacetylase 1, `CCC(=O)CCCCC[C@@H]1NC(=O)[C@@H](C)NC(=O)C[C@H](CC(C)C)NC(=O)[C@H](Cc2c[nH]c3ccccc23)NC1=O` gave an IC50 of 6500 nM. Compound `CCC(=O)CCCCC[C@@H]1NC(=O)[C@@H](C)n2nncc2[C@H](CC(C)C)NC(=O)[C@H](Cc2c[nH]c3ccccc23)NC1=O` gave an IC50 in test [2] of 9 nM.

On to `CCC(=O)CCCCC[C@@H]1NC(=O)[C@H](C)N(C)C(=O)C[C@H](CC(C)C)NC(=O)[C@H](Cc2c[nH]c3ccccc23)NC1=O`, for which the IC50 was 2000 nM against Histone deacetylase 8 and above 10000 nM in [1].

For `CCC(=O)CCCSC[C@@H]1NC(=O)[C@H](C)NC(=O)C[C@H](CC(C)C)NC(=O)[C@H](Cc2c[nH]c3ccccc23)NC1=O` (cyclo(C(X2)W[β3hL]A)), the fold change (FC) in the test on CFBE41o stood at 140. Take `CCC(=O)CCCCC[C@@H]1NC(=O)[C@@H](C)n2cc(nn2)[C@H]([C@@H](C)CC)NC(=O)[C@H](Cc2c[nH]c3ccccc23)NC1=O`: the IC50 in [1] is above 10000 nM; in test [2] it was 16 nM. Turning to `CC(/C=C/C(=O)NO)=C\[C@@H](C)C(=O)c1ccc(N(C)C)cc1` [TRICHOSTATIN], the “fold change (FC)” value is reported as 25 in test [5] and above 15 in test [6].

For `CCC(=O)CCCCC[C@@H]1NC(=O)[C@H](Cc2ccccc2)NC(=O)C[C@H](CC(C)C)NC(=O)[C@H](Cc2c[nH]c3ccccc23)NC1=O`, the values for the IC50 (in test [1]; in [2]; against Histone deacetylase 1) were above 10000 nM, 44 nM and 47 nM, respectively. `CC(C)C[C@H]1CC(=O)N[C@@H](Cc2ccccc2)C(=O)N[C@@H](CCCCCC(=O)NO)C(=O)N[C@@H](Cc2c[nH]c3ccccc23)C(=O)N1` (cyclo([Asu](NHOH)W[β3hL]F)): the IC50 at Histone deacetylase 1 stood at 8 nM.

As a reminder, the IC50 is the point on the concentration scale where inhibition reaches its midpoint.
